Test [1] has as its system Cryptococcus neoformans spores (JEC20 x JEC21). Description: Quantitative germination assay (microfluidic devices, cell size and shape). The class given is cell-based. As for the experimental part:
All germination assays are based on Barkal et al., 2016. Briefly, microfluidic devices were loaded with 1×10^5 spores, and at 0 hours, SD media with drug of interest, were added to the sample. Spores were allowed to germinated at 30° C. in a humidified chamber and cells were monitored every two (2) hours for 16 hours. Each assay was performed in two (2) individual wells with three (3) field of views acquired from each well. All images were analyzed as previously described based on cell shape and size. Population ratio of spores, intermediate, and yeast cells were determined. Error bars in plots are based on variation between all fields of view acquired. […] After the 16-hour experiment, samples were plated on YPD and allowed to grow at 30° C. to determine if drugs were completely germicidal or not based on lack of growth. If assays were unable to be performed in microfluidic devices, the […] spores were incubated in identical conditions outside of PDMS devices and only loaded into devices for image acquisition.

The test system of test [2] is JEC20×JEC21 yeast or spores in mouse lung. Description: Fungal burden animal studies (mouse lung colony-forming units). The class given is in vivo, Cryptococcus neoformans. To be noted: for Lung fungal burden (colony-forming units) versus PBS-treated mice: 4 mg/kg/day intranasal for three days from 1-day post-infection, lungs day 4. How it is done: All yeast cells were cultured overnight in YPD, washed and diluted to 5×10^6 cells. For JEC20 and JEC21, 2.5×10^6 cells of each were combined. Spores were cultured as previously described and diluted to 2×10^6 cells. All experiments were performed on 8- to 10-week old C57BL/6J (Jackson Laboratory, Bar Harbor, Me., USA) female mice (5 mice per group). All mice were infected intranasally with a total of 50 μL. All dosing was performed with 4 mg/kg/day or 1×PBS for three (3) days either prior to infection or 1-day post-infection. Mice were sacked day-4 post-infection and lungs were collected, processed, and fungal burden was assessed.
Pentamidine is a successful inhibitor of Cryptococcus neoformans yeast replication in vitro. For repurposing potential, it is important to determine drug efficacy in vivo. For this purpose, the ability of pentamidine to lower the fungal burden in mouse lungs infected by both spores and yeast was determined. One-day post-infection intranasal dosing was begun at 4 mg/kg/day and the mice were treated for three consecutive days. On the fourth day post-infection, lungs were collected and fungal burden was determined. […] See FIG. 8A and FIG. 8B, respectively.
Pentamidine is a successful inhibitor of spore germination in vitro. It is important, though, to determine drug efficacy in vivo. Therefore, the ability of pentamidine to inhibit germination of spores in mouse lungs was determined. […], mice were infected with JEC20×JEC21 spores and 4-days post infection, mouse lungs were collected and lung fungal burden was determined.

The test system of test [3] is Aspergillus Fumigatus (AF293). As to the kind of experiment: Aspergillus fumigatus MIC on conidia. The following applies: testing performed on conidia. The class given is cell-based. How it is done: Conidia at a final concentration of 2×10^4 cells were incubated in RPMI, 0.33 M MOPS, and 2% glucose at pH 7 at varying concentrations of inhibitors, with a final volume of 200 μL.

The test system of test [4] is JEC20-GFPxJEC21-GFP spores in mouse lung. As to the kind of experiment: In vivo germination (cells recovered from mouse lungs 8 hours post infection). The arrangement: species or system Cryptococcus neoformans. To be noted: prophylactic 4 mg/kg/day for three days; cells recovered 8 hours post infection. How it is done: Female mice, 8- to 10-week-old C57BL/6J (Jackson Laboratory) female mice (3 mice per group) were used. Mice were dosed with either 4mg/kg/day or 1×PBS (50 μL) for three (3) consecutive days. Mice were intranasally infected with 2×10^6 JEC20-GFPxJEC21-GFP spores, strains described in Walsh et al., 2018. After 8 hours post-infection, mice were sacked and lavaged with 0.05% TirtonX in 1×PBS. Lavage suspension underwent a series of treatments and washes, in order: red blood cell lysis (ACK lysing buffer, 2 mL, 5 minutes), formaldehyde fixation (4%, 500 μL, 30 minutes) and calcofluor white staining (25 μg/mL, 20 μL for 1 minute). Cells (50-100 per mouse) were imaged, and identified as Cryptococcus neoformans cells based on green fluorescent signal or cyan staining from calcofluor staining. Cells surface area and aspect ratio were measured in ImageJ and cells were classified as spores, intermediates, or yeast based on size and shapes parameters used in the quantitative germination assay.
In vivo spore germination has never been characterized mainly due to technical hurdles. Using a novel assay, Cryptococcus neoformans cells were recovered from prophylactically treated, spore-infected mouse lungs 8 hours post infection. […] Based on size and shape of the cells, the level of in vivo spore germination was quantified.

The text below walks through data of patent US11981953B2, “Method to screen compounds for antifungal activity and pharmaceutical compositions and methods to treat fungal diseases by inhibiting spore germination” (WISCONSIN ALUMNI RESEARCH FOUNDATION, priority 2018, dated 2024).

For `N=C(N)c1ccc(OCCCCCOc2ccc(C(=N)N)cc2)cc1` [Pentamidine], the “Germicidal activity” value is listed as “showed germicidal activity” in test [1] (50 μg/mL) and “not germicidal” in test [1] (lower concentration). Moreover, in test [1] (as concentrations increased), the “Spore germination over a range of concentrations” value was “spore germination became slower”. Besides, in test [1] (yeast population increase = escape, listed as pentamidine), the “Spore escape from inhibition (words)” value is “no individual spores were able to escape inhibition”. The “Lung fungal burden after prophylaxis versus 1×PBS” value in test [2] (4 mg/kg/day for three consecutive days prior to infection with JEC20×JEC21 spores, lungs 4-days post infection, FIG. 9, p<0.01) is given as “successful in decreasing spore-mediated lung burden”. For the same compound, the “Lung fungal burden (colony-forming units) versus PBS-treated mice” value in test [2] (spore-infected C57BL/6J mice, FIG. 8B, p<0.01) is reported as “significantly lower fungal burdens in the lung”; in test [2] (yeast-infected C57BL/6J mice, FIG. 8A, p<0.05), “significantly lower fungal burdens in the lung”. Moreover, the “Ability to inhibit Aspergillus fumigatus” value in test [3] is on record as “unable to inhibit”. The “Level of in vivo spore germination (spore, intermediate, yeast percent)” value in test [4] was “higher spore percent and a lower yeast percent”.
